Tests used:
Stp1 [1] = target: Stp1 (Staphylococcus aureus, UniProt A0A0H2XF73, I164A); experiment: biochemical
Stp1 [2] = target: Stp1 (Staphylococcus aureus, UniProt A0A0H2XF73, F179A); experiment: biochemical
Stp1 [3] = target: Stp1 (Staphylococcus aureus, UniProt A0A0H2XF73, P152A); experiment: biochemical
Stp1 [4] = target: T1, Stp1 (Staphylococcus aureus, UniProt A0A0H2XF73); experiment: pNPP phosphatase assay, absorbance […] nm; assay type: biochemical; details: read-out: % inhibition at 32 μg/mL
T1 sequence (A0A0H2XF73 1-247): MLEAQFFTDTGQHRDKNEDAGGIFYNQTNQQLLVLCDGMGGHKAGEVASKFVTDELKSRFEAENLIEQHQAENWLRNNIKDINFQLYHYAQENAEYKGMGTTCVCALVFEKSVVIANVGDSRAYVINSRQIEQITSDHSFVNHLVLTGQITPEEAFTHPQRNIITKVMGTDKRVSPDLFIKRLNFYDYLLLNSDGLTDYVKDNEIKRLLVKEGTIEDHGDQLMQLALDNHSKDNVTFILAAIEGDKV

Stp1 [5] = target: T1, Stp1; experiment: fluorescence quenching; assay type: binding
Stp1 [6] = target: Stp1 (Staphylococcus aureus, UniProt A0A0H2XF73, Y199A); experiment: biochemical

With `O=C(O[C@@H]1O[C@@H]2COC(=O)c3cc(O)c(O)c(O)c3-c3c(cc(O)c(O)c3O)C(=O)O[C@H]([C@H]1O)[C@@H]2O)c1cc(O)c(O)c(O)c1` [corilagin] the Kd (Stp1 [1]) was 8850 nM, the Kd (Stp1 [2]) was 2560 nM and the Kd (Stp1 [3]) was 7250 nM. For the same compound, the inhibition at 32 µg/mL (Stp1 [4]) was > 90%, the Kd (Stp1 [5]) was 1940 nM and the Kd (Stp1 [6]) was 2870 nM.

Source: paper PMC7774088 (ACS Omega, 2020)
